Measured values: US20240124483A1, “Methods for the Treatment of Fibrotic Disease” (SHY Therapeutics, LLC, priority 2021, published 2024)
Where two headings read alike, the source gives them in different places.

What was measured:
KRas G12C mutant = KRas G12C mutant (Homo sapiens (Human), UniProt P01116, G12C); assay: Ras GTP Binding Domain Inhibition Assay, KRas G12C mutant
Description: (§1) A Ras Superfamily Activity Assay (as disclosed in International Application No. PCT/US2018/038613, filed Jun. 20, 2018, which is incorporated by reference in its entirety) was used as a specific assay to evaluate compounds against the following for the following Ras Superfamily proteins: KRas wild type, KRas Q61H mutant, KRas G12C mutant, KRas G12D mutant, Rac-1, and Rho-A.
(§2) Buffer-I: • 25 mM Tris-HCl, pH 7.4 • 27 mM KCl • 137 mM NaCl • 1 mM MgCl2 • 1 mM DTT
(§3) Buffer-II: • 50 mM Tris-HCl, pH 7.0 • 1 mM MgCl2 • 1 mM DTT
(§4) The small GTPases proteins: KRas wild type. KRas Q61H mutant, KRas G12C mutant, KRas G12D mutants, Rac-1, and Rho-A were expressed as His-tagged proteins. In addition, the Guanosine nucleotide Exchange Factor (GEF) Sos protein (residues 556-1049) was expressed as a His-tagged protein. In cells, the guanine nucleotide exchange factor Sos protein promotes activation of Ras proteins by stimulating an exchange of GDP for GTP. The inclusion of Sos to the Ras GTP binding domain inhibition assay may be considered as an alternative representation of physiological cellular conditions for evaluating the inhibitory activity of some of the tested small molecules.
(§5) For the assay, all purified small GTPases proteins were diluted in Buffer-I or Buffer-II to a final concentration of 10-30 μg/mL. 200 μL of each diluted protein was added to a nickel-coated 96-well plate and incubated overnight at 4° C. Then the protein solution was discarded and 200 μL of Buffer-I or Buffer-II was added to each well in the presence of 1% DMSO. Compounds to be tested were added to the protein-coated wells at final concentration of 20 μM, and incubated for 3 hours at room temperature with and without 10-30 μg/mL of Sos added to the final hour of the incubation. When performing IC50 measurements a serial dilution of all tested concentrations was added. Then Cy3-GTP or Cy5-GTP was added to each well to a final concentration of 100 nM. The labeled GTP was incubated for 45 minutes at room temperature. Following GTP incubation, wells were washed 3× in Buffer-I or Buffer-II and 200 μL of Buffer-I or Buffer-II was added to each well. Following washes, the amount of bound labeled-GTP was measured using a SpectraMax M3 (Molecular Devices).

KRas Q61H mutant = KRas Q61H mutant (Homo sapiens (Human), UniProt P01116, Q61H); assay: Ras GTP Binding Domain Inhibition Assay, KRas Q61H mutant; conditions: 20 μM
Description: as §1, §2, §3, §4, §5

Smad2/3 phosphorylation = assay: Phospho-Smad2/3 Inhibition Assay in Panc-1 (western blot); assay type: cell-based; conditions: Homo sapiens; 10 μM, 3 hours; PANC-1 stimulated with 10 ng/ml TGF-b1 for 1 hour; read-out: % inh of Smad2/3 phosphorylation in PANC-1
Description: Cell lines: Human tumor-derived pancreatic cancer cell line Panc-1 and mouse muscle myoblast C2C12 were purchased from American Type Culture Collection and grown in complete DMEM-High Glucose, supplemented with penicillin (100 U/mL), streptomycin (100 μg/mL), and 10% heat-inactivated FBS at 37° C. in a humidified incubator with 5% CO2.
Method: Cells were plated at 350000 cells/well density in a 12-well plate, allowed 3 hours to adhere to the plate, then starved in the appropriate medium in the presence of 0.5% FBS overnight. The small molecules to be tested were added to the cells in the final concentration of 10 μM in the presence of 0.3% DMSO for 3 hours incubation at 37° C. For IC50 value determination, serial dilutions of compounds were added to cells under the same conditions. Next, Panc-1 cells were stimulated with 10 ng/ml TGF-b1 for 1 hour, and C2C12 cells were stimulated with 10 ng/ml TGF-b1 for 20 minutes (recombinant human TGF-b1, R&D Systems). After stimulation cells were lysed with lysis buffer containing 1% Triton X-100, EDTA, and Halt™ Protease & Phosphatase Inhibitor Cocktail (Thermo Scientific). Protein concentration was assessed by BCA protein assay (Thermo Scientific). Phosphorylation level of Smad2/Smad3 was determined by western blot.
Western blot protocol: Equal amounts of protein (15-50 μg) were separated by SDS-PAGE and transferred to nitrocellulose membranes (Invitrogen by Thermo Fisher Scientific). The membrane was stained with Ponceau S Stain (Boston BioProducts) to verify uniform protein loading. Membranes were blocked with 10% milk and phosphorylation levels of Smad2/Smad3 were assessed by incubating overnight at 4° C. with the following antibodies: Phospho-Smad2 (Ser465/467) and Phosph-Smad3 (Ser423/425), both from Cell Signaling Technology. Then the membranes were incubated with HRP-conjugated secondary antibody (Jackson Immunoresearch, West Grove, PA). Bands were incubated in Amersham ECL Prime Western Blotting Detection Reagent (GE Healthcare) and visualized using the ChemiDoc MP imaging system (Bio-Rad).

MiaPaca2 = MiaPaca2 proliferation; assay type: cell-based; conditions: Homo sapiens, MIA PaCa-2; for inhibition at 10 µM: read-out: % inh of proliferation in MiaPaca2
KRas G12D mutant = KRas G12D mutant (Homo sapiens (Human), UniProt P01116, G12D); assay: Ras GTP Binding Domain Inhibition Assay, KRas G12D mutant; conditions: for inhibition at 20 µM: Table 7; for KRas G12D mutant + SOS: % inh. / KRas G12D mutant: % inh.: 20 uM, Table 8
Description: as §1, §2, §3, §4, §5

[1] = + SOS, read-out: KRas G12C mutant + SOS: % inh.
[2] = without SOS, read-out: KRas G12C mutant: % inh.
[3] = + SOS, read-out: KRas Q61H mutant + SOS: % inh.
[4] = without SOS, read-out: KRas Q61H mutant: % inh.
[5] = + SOS, read-out: KRas G12D mutant + SOS: % inh.
[6] = without SOS, read-out: KRas G12D mutant: % inh.

Sequence of KRas G12C mutant (P01116 other isoform, or with tags, fused parts or gaps G12C): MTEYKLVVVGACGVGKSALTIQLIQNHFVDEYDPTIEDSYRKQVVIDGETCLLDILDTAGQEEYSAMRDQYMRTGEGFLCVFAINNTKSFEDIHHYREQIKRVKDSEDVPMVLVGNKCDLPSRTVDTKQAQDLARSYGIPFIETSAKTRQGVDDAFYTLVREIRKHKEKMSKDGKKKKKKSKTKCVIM
Sequence of KRas G12D mutant (P01116 other isoform, or with tags, fused parts or gaps G12D): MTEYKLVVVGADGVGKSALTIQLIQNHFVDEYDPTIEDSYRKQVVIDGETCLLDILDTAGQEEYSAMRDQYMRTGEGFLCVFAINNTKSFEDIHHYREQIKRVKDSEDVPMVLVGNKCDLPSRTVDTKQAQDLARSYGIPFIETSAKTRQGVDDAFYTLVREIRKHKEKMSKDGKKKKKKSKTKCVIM
Sequence of KRas Q61H mutant (P01116 other isoform, or with tags, fused parts or gaps Q61H): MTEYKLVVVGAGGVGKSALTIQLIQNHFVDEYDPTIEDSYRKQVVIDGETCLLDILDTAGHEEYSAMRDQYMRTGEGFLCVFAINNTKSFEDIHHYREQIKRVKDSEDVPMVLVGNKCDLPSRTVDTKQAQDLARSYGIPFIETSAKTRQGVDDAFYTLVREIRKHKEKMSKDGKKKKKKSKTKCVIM

Structure (SMILES)	inhibition at 20 µM (KRas G12C mutant; [1])	inhibition at 20 µM (KRas G12C mutant; [2])	inhibition at 20 µM (KRas Q61H mutant; [3])	inhibition at 20 µM (KRas Q61H mutant; [4])	inhibition at 10 µM (Smad2/3 phosphorylation)	IC50 (MiaPaca2)	inhibition at 10 µM (MiaPaca2)	inhibition at 20 µM (KRas G12D mutant; [5])	KRas G12D mutant + SOS: % inh. (KRas G12D mutant; + SOS)	inhibition at 20 µM (KRas G12D mutant; [6])	KRas G12D mutant: % inh. (KRas G12D mutant; without SOS)
COCC1(OC)CCN(c2nc(-c3nccn3C)nc3sc(-c4ccn(C(C)C)n4)c(C)c23)C1 (racemic) [Compound 27, rac-6-(1-Isopropyl-1H-pyrazol-3-yl)-4-(3-methoxy-3-(methoxymethyl)pyrrolidin-1-yl)-5-methyl-2-(1-methyl-1H-imidazol-2-yl)thieno[2,3-d]pyrimidine]	76 to 100%	76 to 100%	76 to 100%	46 to 75%	0%	5 to 10 µM	76 to 100%	76 to 100%	D (D = 76-100% inhibition)	46 to 75%	C (C = 46-75% inhibition)
COCCn1ccc(-c2sc3nc(-c4nccn4C)nc(NC[C@H]4CC[C@H]4COC)c3c2C)n1 (racemic) [Compound 38, rac-6-(1-(2-Methoxyethyl)-1H-pyrazol-3-yl)-N-(((1S,2R)-2-(methoxymethyl)cyclobutyl)methyl)-5-methyl-2-(1-methyl-1H-imidazol-2-yl)thieno[2,3-d]pyrimidin-4-amine]	76 to 100%	46 to 75%	76 to 100%	46 to 75%	46 to 75%	5 to 10 µM	76 to 100%	76 to 100%	D (D = 76-100% inhibition)	26 to 45%	B (B = 26-45% inhibition)
COCCn1ccc(-c2sc3nc(-c4nccn4C)nc(N[C@@H]4CC[C@H](OC)C4)c3c2C)n1 (racemic) [Compound 39, rac-N-((1R,3S)-3-Methoxycyclopentyl)-6-(1-(2-methoxyethyl)-1H-pyrazol-3-yl)-5-methyl-2-(1-methyl-1H-imidazol-2-yl)thieno[2,3-d]pyrimidin-4-amine]	76 to 100%	76 to 100%	76 to 100%	76 to 100%	0%	5 to 10 µM	76 to 100%	76 to 100%	D (D = 76-100% inhibition)	46 to 75%	C (C = 46-75% inhibition)
COc1cccc(-c2sc3nc(-c4nccn4C)nc(N[C@@H]4CC[C@@H](OC)C4)c3c2-c2ccccc2)c1F (racemic) [Compound 41, 6-(2-Fluoro-3-methoxyphenyl)-N-((1R,3R)-3-methoxycyclopentyl)-2-(1-methyl-1H-imidazol-2-yl)-5-phenylthieno[2,3-d]pyrimidin-4-amine]	76 to 100%	26 to 45%	76 to 100%	26 to 45%	76 to 100%	1 to 4.99 µM	76 to 100%	46 to 75%	C (C = 46-75% inhibition)	1 to 25%	A (A = 1-25% inhibition)
COc1cccc(-c2sc3nc(-c4nccn4C)nc(N[C@@H]4CC[C@@H](OC)C4)c3c2C)c1F (racemic) [Compound 43, rac-6-(2-Fluoro-3-methoxyphenyl)-N-((1R,3R)-3-methoxycyclopentyl)-5-methyl-2-(1-methyl-1H-imidazol-2-yl)thieno[2,3-d]pyrimidin-4-amine]	76 to 100%	26 to 45%	76 to 100%	26 to 45%	76 to 100%	5 to 10 µM	46 to 75%	76 to 100%	D (D = 76-100% inhibition)	1 to 25%	A (A = 1-25% inhibition)
COc1cc(-c2sc3nc(-c4nccn4C)nc(N[C@@H]4CC[C@H](OC)C4)c3c2-c2ccccc2)ccn1 (racemic) [Compound 44, rac-N-((1R,3S)-3-Methoxycyclopentyl)-6-(2-methoxypyridin-4-yl)-2-(1-methyl-1H-imidazol-2-yl)-5-phenylthieno[2,3-d]pyrimidin-4-amine]	76 to 100%	26 to 45%	76 to 100%	26 to 45%	76 to 100%	5 to 10 µM	76 to 100%	46 to 75%	C (C = 46-75% inhibition)	76 to 100%	D (D = 76-100% inhibition)
COc1cc(-c2sc3nc(-c4nccn4C)nc(N[C@@H]4CC[C@@H](OC)C4)c3c2-c2ccccc2)ccn1 (racemic) [Compound 47, N-((1R,3R)-3-Methoxycyclopentyl)-6-(2-methoxypyridin-4-yl)-2-(1-methyl-1H-imidazol-2-yl)-5-phenylthieno[2,3-d]pyrimidin-4-amine]	76 to 100%	46 to 75%	76 to 100%	46 to 75%	76 to 100%	< 1 µM	76 to 100%	76 to 100%	D (D = 76-100% inhibition)	46 to 75%	C (C = 46-75% inhibition)
CO[C@H]1C[C@H](CNc2nc(-c3nccn3C)nc3sc(-c4ccn(C(C)C)n4)c(C)c23)C1 [Compound 16, 6-(1-Isopropyl-1H-pyrazol-3-yl)-N-(((1r,3r)-3-methoxycyclobutyl)methyl)-5-methyl-2-(1-methyl-1H-imidazol-2-yl)thieno[2,3-d]pyrimidin-4-amine]	46 to 75%	46 to 75%	46 to 75%	46 to 75%	1 to 25%	< 1 µM	76 to 100%	46 to 75%	C (C = 46-75% inhibition)	26 to 45%	B (B = 26-45% inhibition)
